One may read the pEC50 as the EC50 on a negative log10 scale, so that one unit is a factor of ten.

pEC50: −log10 of the molar value.

The record followed here is patent US10259810B2, “N-sulfonylated pyrazolo[3,4-b]pyridin-6-carboxamides and method of use” (AbbVie S.à.r.l., priority 2015, dated 2019).

Test [1] has as its target T1, ΔF508-CFTR (Homo sapiens, UniProt P13569, DEL508-508).
T1 construct: host or cells: CFBE41o-, doxycycline-inducible
Nature of the test: CFTR cell surface levels using HRP-tagged ΔF508-CFTR expressing CFBE cells, in the presence of a co-corrector. Conditions: HRP-tagged ΔF508-CFTR CFBE cells, in the presence of 3 μM co-corrector; for pEC50: read-out: EC50. It is filed as cell-based. Put shortly: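 Chemiluminescent read-out of surface HRP (15 min, dark) after PBS washes. Activity is normalized as 100×(sample−DMSO)/(3 μM co-corrector alone−DMSO).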

The target of test [2] is T1, ΔF508-CFTR. As to the kind of experiment: CFTR cell surface levels using HRP-tagged ΔF508-CFTR expressing CFBE cells, intrinsic corrector capacity. In kind it is cell-based. The arrangement: % Activation: concentration or dose not given beside the values. To be noted: HRP-tagged ΔF508-CFTR expressing CFBE41o- cells, compound alone (intrinsic corrector capacity), 20 hours at 33° C.; for pEC50: read-out: EC50. The source says:
Measuring CFTR Cell Surface Levels Using HRP-Tagged ΔF508-CFTR Expressing CFBE Cells
The HRP-tagged ΔF508-CFTR cell assay measures the expression of CFTR-ΔF508 at the plasma membrane. CFTR-ΔF508 has a folding defect leading to absence of protein at the plasma membrane. This assay is used to evaluate the capacity of compounds to increase the expression of CFTR-ΔF508 at the plasma membrane. The CFTR-ΔF508 is tagged with HRP (horse radish peroxidase enzyme) within the ECL4 (Extracellular loop 4) of CFTR (Phuan, P.-W. et al. Synergy-based small-molecule screen using a human lung epithelial cell line yields ΔF508-CFTR correctors that augment VX-809 maximal efficacy. Mol. Pharmacol. 86, 42-51 (2014)). When HRP-tagged ΔF508-CFTR is present at the plasma membrane, the HRP enzyme activity can be measured. The amount of CFTR-ΔF508 that can be rescued to the plasma membrane is correlated with the amount of functional enzyme that can be measured.
There are several ways to measure the capacity of compounds to rescue CFTR-ΔF508 to the plasma membrane; either compounds are evaluated on their own and the impact on plasma membrane levels is measured or compounds are evaluated in combination with a co-corrector, i.e. a compound that rescues CFTR-ΔF508 to the plasma membrane but rescue can be enhanced by addition of compounds due to a complementary mode of action.
Activity of Compounds for their Intrinsic Corrector Capacity:
For this purpose doxycycline-inducible ΔF508-CFTR-HRP expressing CFBE4lo− cells (obtained from Gergely Lukacs, McGill University) were maintained in MEM (Gibco; 31095) supplemented with 10% fetal bovine serum (Hyclone; SV30160.03) under puromycin (3 μg/mL) and G418 selection (0.2 mg/mL). For compound testing, cells were seeded at 4000 cells/well in white 384-well plates (Greiner; 781080) in 50 μL medium containing 0.5 μg/mL doxycycline and incubated for 68 hours at 37° C., 5% CO2. On day four, […] compounds diluted in PBS were added to the plates at a final DMSO concentration of 0.1%. All compound plates contained negative controls (DMSO) and positive controls ([…] corrector, 3-[(2R,4R)-4-({[1-(2,2-difluoro-1,3-benzodioxol-5-yl)cyclopropyl]carbonyl}amino)-7-methoxy-3,4-dihydro-2H-chromen-2-yl]benzoic acid). Cell plates were incubated at 33° C., 5% CO2 for 20 hours. On day five, the cells were washed five times with phosphate-buffered saline, and HRP activity was assayed by the addition of 50 μL/well of HRP substrate (SuperSignal™ West Pico Chemiluminescent Substrate, Thermo Scientific; 34080). After incubation for 15 minutes in the dark, chemiluminescence was measured using a plate reader (EnVision®, Perkin Elmer). Raw data were normalized to percentage activity values using the equation: 100×(Sample−Negative control)/(Positive control−Negative Control).

T1 sequence (P13569 with tags, fused parts or gaps DEL508-508): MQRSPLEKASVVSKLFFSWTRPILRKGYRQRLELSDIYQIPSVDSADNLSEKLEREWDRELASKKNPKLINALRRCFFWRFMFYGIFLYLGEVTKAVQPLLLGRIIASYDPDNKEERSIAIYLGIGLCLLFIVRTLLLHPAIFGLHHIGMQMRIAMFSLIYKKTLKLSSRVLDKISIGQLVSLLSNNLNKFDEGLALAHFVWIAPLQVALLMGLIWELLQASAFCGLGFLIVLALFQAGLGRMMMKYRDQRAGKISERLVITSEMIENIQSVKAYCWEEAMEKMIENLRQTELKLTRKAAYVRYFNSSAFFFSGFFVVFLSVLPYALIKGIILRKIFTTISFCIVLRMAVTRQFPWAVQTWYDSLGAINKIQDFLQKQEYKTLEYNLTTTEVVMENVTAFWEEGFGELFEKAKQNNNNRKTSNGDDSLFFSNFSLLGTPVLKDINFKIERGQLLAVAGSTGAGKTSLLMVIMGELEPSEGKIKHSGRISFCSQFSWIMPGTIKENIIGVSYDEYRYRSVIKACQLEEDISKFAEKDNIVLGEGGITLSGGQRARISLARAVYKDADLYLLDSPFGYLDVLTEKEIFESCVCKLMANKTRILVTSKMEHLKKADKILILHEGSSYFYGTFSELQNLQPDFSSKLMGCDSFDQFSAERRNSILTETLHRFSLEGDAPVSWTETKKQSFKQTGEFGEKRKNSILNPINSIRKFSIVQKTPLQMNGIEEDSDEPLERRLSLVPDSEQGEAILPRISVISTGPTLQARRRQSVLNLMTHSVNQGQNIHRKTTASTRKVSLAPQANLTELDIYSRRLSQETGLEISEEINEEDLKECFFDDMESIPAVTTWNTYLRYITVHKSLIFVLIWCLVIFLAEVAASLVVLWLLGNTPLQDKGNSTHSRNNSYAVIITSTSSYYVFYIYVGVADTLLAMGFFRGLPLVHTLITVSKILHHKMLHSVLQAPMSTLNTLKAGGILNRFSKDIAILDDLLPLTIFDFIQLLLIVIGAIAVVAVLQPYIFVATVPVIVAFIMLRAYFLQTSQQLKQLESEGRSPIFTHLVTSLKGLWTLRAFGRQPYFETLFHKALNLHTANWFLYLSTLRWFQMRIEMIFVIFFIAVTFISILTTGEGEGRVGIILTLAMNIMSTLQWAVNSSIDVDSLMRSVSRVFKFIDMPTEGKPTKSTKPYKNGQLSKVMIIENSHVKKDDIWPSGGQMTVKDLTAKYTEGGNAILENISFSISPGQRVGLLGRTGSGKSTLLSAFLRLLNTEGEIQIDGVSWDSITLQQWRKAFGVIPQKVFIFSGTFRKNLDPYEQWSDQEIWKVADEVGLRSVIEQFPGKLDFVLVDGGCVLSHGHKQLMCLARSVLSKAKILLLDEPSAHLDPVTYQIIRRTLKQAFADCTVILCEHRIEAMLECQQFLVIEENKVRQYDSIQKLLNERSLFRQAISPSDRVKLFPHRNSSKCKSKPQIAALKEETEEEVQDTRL

For the compound `CCS(=O)(=O)NC(=O)c1cc(N2CCCCC2)c2c(C)nn(-c3ccccc3)c2n1` [Compound 19, N-(ethanesulfonyl)-3-methyl-1-phenyl-4-(piperidin-1-yl)-1H-pyrazolo[3,4-b]pyridine-6-carboxamide], in test [1], the “% Activation” value worked out at 304.05% and the pEC50 is 5.79. In test [2], the “% Activation” value came out at 140.85% and the pEC50 was 5.58.

Turning to `CC(C)c1nn(-c2ccccc2)c2nc(C(=O)NS(C)(=O)=O)cc(-c3cnc(N4CCOCC4)nc3)c12` [Compound 20, N-(methanesulfonyl)-4-[2-(morpholin-4-yl)pyrimidin-5-yl]-1-phenyl-3-(propan-2-yl)-1H-pyrazolo[3,4-b]pyridine-6-carboxamide], the “% Activation” value in test [1] is listed as 417.5%; in test [2], 210.3%. The values for the negative logarithm of the EC50 (pEC50) in test [1] and in test [2] were 6.26 and 6.17, respectively.

Consider `Cc1nn(-c2ccc(F)cc2F)c2nc(C(=O)NS(C)(=O)=O)cc(-c3ccc(N4CCOCC4)cc3)c12` [Compound 21, 1-(2,4-difluorophenyl)-N-(methanesulfonyl)-3-methyl-4-[4-(morpholin-4-yl)phenyl]-1H-pyrazolo[3,4-b]pyridine-6-carboxamide], for which, in test [1], the “% Activation” value worked out at 440.1% and the pEC50 was 6.28. Moreover, in test [2], the “% Activation” value was 264.25% and the pEC50 was 6.16.

Take `CC(C)c1nn(C2CCCCC2)c2nc(C(=O)NS(C)(=O)=O)cc(-c3ccc(N(C)C)nc3)c12` [Compound 22, 1-cyclohexyl-4-[6-(dimethylamino)pyridin-3-yl]-N-(methanesulfonyl)-3-(propan-2-yl)-1H-pyrazolo[3,4-b]pyridine-6-carboxamide]: in test [1], the “% Activation” value stood at 371.55% and the pEC50 was 6.30. In test [2], the “% Activation” value came out at 161.5% and the pEC50 was 6.14.

As to `Cc1nn(-c2cc(F)cc(F)c2)c2nc(C(=O)NS(C)(=O)=O)cc(-c3ccc(N4CCOCC4)cc3)c12` [Compound 23, 1-(3,5-difluorophenyl)-N-(methanesulfonyl)-3-methyl-4-[4-(morpholin-4-yl)phenyl]-1H-pyrazolo[3,4-b]pyridine-6-carboxamide], in test [1], the “% Activation” value worked out at 468.85% and the pEC50 is 6.24. Moreover, in test [2], the “% Activation” value was determined as 287.3% and the pEC50 is 6.05.

As for `Cc1cc(C)cc(-n2nc(C)c3c(-c4ccc(N5CCOCC5)cc4)cc(C(=O)NS(C)(=O)=O)nc32)c1` [Compound 24, 1-(3,5-dimethylphenyl)-N-(methanesulfonyl)-3-methyl-4-[4-(morpholin-4-yl)phenyl]-1H-pyrazolo[3,4-b]pyridine-6-carboxamide], the “% Activation” value in test [1] is 380.5%; in test [2] it was 193.75%. Moreover, the negative-log EC50 (pEC50) in test [1] was 6.13; in test [2], 6.05.

Take `Cc1nn(-c2ccc(F)c(F)c2)c2nc(C(=O)NS(C)(=O)=O)cc(-c3ccc(N4CCOCC4)cc3)c12` [Compound 25, 1-(3,4-difluorophenyl)-N-(methanesulfonyl)-3-methyl-4-[4-(morpholin-4-yl)phenyl]-1H-pyrazolo[3,4-b]pyridine-6-carboxamide]: in test [1], the “% Activation” value is listed as 437.17% and the pEC50 was 6.19. In addition, in test [2], the “% Activation” value amounted to 247.23% and the pEC50 is 6.00.

Consider `Cc1nn(-c2cccc(C(F)(F)F)c2)c2nc(C(=O)NS(C)(=O)=O)cc(-c3ccc(N(C)C)cc3)c12` [Compound 26, 4-[4-(dimethylamino)phenyl]-N-(methanesulfonyl)-3-methyl-1-[3-(trifluoromethyl)phenyl]-1H-pyrazolo[3,4-b]pyridine-6-carboxamide], for which, in test [1], the “% Activation” value amounted to 449.7% and the pEC50 was 5.81. Further, in test [2], the “% Activation” value came to 202.25% and the pEC50 was 5.73.

As to `COc1ccc(-c2cc(C(=O)NS(C)(=O)=O)nc3c2c(C)nn3-c2cccc(C)c2)cc1` [Compound 27, N-(methanesulfonyl)-4-(4-methoxyphenyl)-3-methyl-1-(3-methylphenyl)-1H-pyrazolo[3,4-b]pyridine-6-carboxamide], the figures for the “% Activation” value in test [1] and in test [2] were 365.2% and 145.5%, respectively. For the same compound, the pEC50 in test [1] is 6.15; in test [2], 5.91.

Regarding `CCS(=O)(=O)NC(=O)c1cc(-c2ccc(OC)cc2)c2c(C)nn(-c3cccc(C)c3)c2n1` [Compound 28, N-(ethanesulfonyl)-4-(4-methoxyphenyl)-3-methyl-1-(3-methylphenyl)-1H-pyrazolo[3,4-b]pyridine-6-carboxamide], in test [1], the “% Activation” value stood at 354.45% and the pEC50 is 6.03. Also, in test [2], the “% Activation” value came out at 149.7% and the pEC50 is 5.91.

Turning to `CC(C)c1nn(-c2cccc(N3CCOCC3)c2)c2nc(C(=O)NS(C)(=O)=O)cc(-c3cnc(N(C)C)nc3)c12` [Compound 29, 4-[2-(dimethylamino)pyrimidin-5-yl]-N-(methanesulfonyl)-1-[3-(morpholin-4-yl)phenyl]-3-(propan-2-yl)-1H-pyrazolo[3,4-b]pyridine-6-carboxamide], in test [1], the “% Activation” value is on record as 591.4% and the pEC50 was 6.08. Moreover, in test [2], the “% Activation” value was determined as 328.4% and the pEC50 was 6.19.

As to `CC(C)c1nn(-c2cccc(N3CCOCC3)c2)c2nc(C(=O)NS(C)(=O)=O)cc(-c3ccc(N(C)C)nc3)c12` [Compound 31, 4-[6-(dimethylamino)pyridin-3-yl]-N-(methanesulfonyl)-1-[3-(morpholin-4-yl)phenyl]-3-(propan-2-yl)-1H-pyrazolo[3,4-b]pyridine-6-carboxamide], in test [1], the “% Activation” value stood at 423.27% and the pEC50 was 6.69. Also, in test [2], the “% Activation” value was determined as 203.4% and the pEC50 is 6.50.

`CCS(=O)(=O)NC(=O)c1cc(-c2ccc(N(C)C)nc2)c2c(C(C)C)nn(-c3cccc(N4CCOCC4)c3)c2n1` [Compound 32, 4-[6-(dimethylamino)pyridin-3-yl]-N-(ethanesulfonyl)-1-[3-(morpholin-4-yl)phenyl]-3-(propan-2-yl)-1H-pyrazolo[3,4-b]pyridine-6-carboxamide]: in test [1], the “% Activation” value was 526% and the pEC50 was 6.63. Further, in test [2], the “% Activation” value is listed as 277.65% and the pEC50 was 6.43.

As for `Cc1nn(-c2ccccc2)c2nc(C(=O)NS(C)(=O)=O)cc(-c3ccc(N(C)C)cc3)c12` [Compound 33, 4-[4-(dimethylamino)phenyl]-N-(methanesulfonyl)-3-methyl-1-phenyl-1H-pyrazolo[3,4-b]pyridine-6-carboxamide], in test [1], the “% Activation” value was 315.6% and the pEC50 is 6.33. In addition, in test [2], the “% Activation” value came out at 109% and the pEC50 was 5.59.

On to `CCS(=O)(=O)NC(=O)c1cc(-c2ccc(N3CCOCC3)nc2)c2c(C(C)C)nn(-c3ccccc3)c2n1` [Compound 35, N-(ethanesulfonyl)-4-[6-(morpholin-4-yl)pyridin-3-yl]-1-phenyl-3-(propan-2-yl)-1H-pyrazolo[3,4-b]pyridine-6-carboxamide], for which, in test [1], the “% Activation” value was 509.7% and the pEC50 is 6.46. In addition, in test [2], the “% Activation” value is 265.23% and the negative logarithm of the EC50 (pEC50) is 6.27.

In the case of `COC1CN(c2cccc(-n3nc(C(C)C)c4c(-c5ccc(N6CCOCC6)cc5)cc(C(=O)NS(C)(=O)=O)nc43)c2)C1` [Compound 36, N-(methanesulfonyl)-1-[3-(3-methoxyazetidin-1-yl)phenyl]-4-[4-(morpholin-4-yl)phenyl]-3-(propan-2-yl)-1H-pyrazolo[3,4-b]pyridine-6-carboxamide], in test [1], the “% Activation” value came out at 572.93% and the pEC50 was 6.61. In addition, in test [2], the “% Activation” value worked out at 384.57% and the pEC50 is 6.38.
